We go through 27 molecules from US8716292B2, “Riminophenazines with 2-(heteroaryl)amino substituents and their anti-microbial activity” (priority 2010, dated 2014).

SMILES strings stand for the structures. ≈ marks a conversion by molar mass, not a printed value.

In the experiment the test system is Mycobacterium tuberculosis H37Rv strains. The experiment in a line: In vitro assay for antimicrobial susceptibility (microplate Alamar blue MIC). It counts as cell-based. Particulars: Mycobacterium tuberculosis, H37RV, in vitro, Mycobacterium tuberculosis H37Rv strains; read-out: MIC (μg/mL) against H37Rv.
For `COC1CCC(/N=c2\cc3n(-c4ccc(Br)cc4)c4ccccc4nc-3cc2Nc2cccnc2)CC1` (stereo not drawn) [TBI-091, 5-(4-Bromophenyl)-3-(4-methoxycyclohexyl)imino-2-(3-pyridyl)amino-3,5-dihydrophenazine], the MIC stood at 0.062 µg/mL (≈ 0.112 µM).
Take `Cc1ncccc1Nc1cc2nc3ccccc3n(-c3ccccc3)c-2c/c1=N\C1CCC(O)CC1` (stereo not drawn) [TBI-092]: the MIC was found to be 0.5 µg/mL (≈ 1.05 µM).
Consider `Brc1ccc(-n2c3c/c(=N\C4CCOCC4)c(Nc4cccnc4)cc-3nc3ccccc32)cc1` [TBI-093, 5-(4-Bromophenyl)-3-(4-tetrahydropyranyl)imino-2-(3-pyridyl)amino-3,5-dihydrophenazine], for which the MIC is 0.163 µg/mL (≈ 0.31 µM).
`OC1CCC(/N=c2\cc3n(-c4ccc(Br)cc4)c4ccccc4nc-3cc2Nc2cccnc2)CC1` (stereo not drawn) [TBI-094, 5-(4-Bromophenyl)-3-(4-hydroxycyclohexyl)imino-2-(3-pyridyl)amino-3,5-dihydrophenazine]: the MIC amounted to 0.5 µg/mL (≈ 0.925 µM).
As to `Cc1ccc(Nc2cc3nc4ccccc4n(-c4ccccc4)c-3c/c2=N\C2CC2)cn1` [TBI-095], the MIC was found to be 0.048 µg/mL (≈ 0.115 µM).
Consider `Cc1cncc(Nc2cc3nc4ccccc4n(-c4ccccc4)c-3c/c2=N\C2CC2)c1` [TBI-096, 5-Phenyl-3-cyclopropylimino-2-(5-methyl-3-pyridyl)amino-3,5-dihydrophenazine], for which the MIC was determined as 0.069 µg/mL (≈ 0.165 µM).
For `COc1ncccc1Nc1cc2nc3ccccc3n(-c3ccccc3)c-2c/c1=N\C1CC1` [TBI-097, 5-Phenyl-3-cyclopropylimino-2-(2-methoxy-3-pyridyl)amino-3,5-dihydrophenazine], the MIC amounted to 0.032 µg/mL (≈ 0.0738 µM).
For the molecule `Brc1ccc(-n2c3c/c(=N\C4CCC4)c(Nc4cccnc4)cc-3nc3ccccc32)cc1` [TBI-098, 5-(4-Bromophenyl)-3-cyclobutylimino-2-(3-pyridyl)amino-3,5-dihydrophenazine], the MIC turned out to be 0.028 µg/mL (≈ 0.0564 µM).
As for `Cc1ccc(Nc2cc3nc4ccccc4n(-c4ccc(Br)cc4)c-3c/c2=N\C(C)C)cn1` [TBI-099, 5-(4-Bromophenyl)-3-(1-methylethyl)imino-2-(6-methyl-3-pyridyl)amino-3,5-dihydrophenazine], the MIC was determined as 0.049 µg/mL (≈ 0.0983 µM).
Then `Cc1ccc(Nc2cc3nc4ccccc4n(-c4ccc(Br)cc4)c-3c/c2=N\C2CC2)cn1` [TBI-100, 5-(4-Bromophenyl)-3-cyclopropylimino-2-(6-methyl-3-pyridyl)amino-3,5-dihydrophenazine], with 0.011 µg/mL (≈ 0.0222 µM); and `CC(C)/N=c1\cc2n(-c3ccc(OC(F)(F)F)cc3)c3ccccc3nc-2cc1Nc1cccnc1` [TBI-157, 5-(4-Trifluoromethoxyphenyl)-3-(1-methylethyl)imino-2-(3-pyridyl)amino-3,5-dihydrophenazine], with 0.03 µg/mL (≈ 0.0613 µM).
Take `CC(C)CN1CCC(/N=c2\cc3n(-c4ccc(OC(F)(F)F)cc4)c4ccccc4nc-3cc2Nc2cccnc2)CC1` [TBI-158, 5-(4-Trifluoromethoxyphenyl)-3-(N-isobutyl-4-piperidyl)imino-2-(3-pyridyl)amino-3,5-dihydrophenazine]: the MIC amounted to 0.03 µg/mL (≈ 0.0511 µM).
As to `CN1CCC(/N=c2\cc3n(-c4ccc(OC(F)(F)F)cc4)c4ccccc4nc-3cc2Nc2cccnc2)CC1` [TBI-159, 5-(4-Trifluoromethoxyphenyl)-3-(N-methyl-4-piperidyl)imino-2-(3-pyridyl)amino-3,5-dihydrophenazine], the MIC came to 0.25 µg/mL (≈ 0.459 µM).
For the molecule `FC(F)(F)Oc1ccc(-n2c3c/c(=N\CCN4CCOCC4)c(Nc4cccnc4)cc-3nc3ccccc32)cc1` [TBI-160], the MIC turned out to be 0.125 µg/mL (≈ 0.223 µM).
For `COC1CCC(/N=c2\cc3n(-c4ccc(OC(F)(F)F)cc4)c4ccccc4nc-3cc2Nc2cccnc2)CC1` (stereo not drawn) [TBI-162, 5-(4-Trifluoromethoxyphenyl)-3-(4-methoxycyclohexyl)imino-2-(3-pyridyl)amino-3,5-dihydrophenazine], the MIC was found to be 0.03 µg/mL (≈ 0.0536 µM).
As to `FC(F)(F)Oc1ccc(-n2c3c/c(=N\C4CCN(C5CCCC5)CC4)c(Nc4cccnc4)cc-3nc3ccccc32)cc1` [TBI-163, 5-(4-Trifluoromethoxyphenyl)-3-(N-cyclopentyl-4-piperidyl)imino-2-(3-pyridyl)amino-3,5-dihydrophenazine], the MIC stood at 0.06 µg/mL (≈ 0.1 µM).
For `COc1ncccc1Nc1cc2nc3ccccc3n(-c3ccc(OC(F)(F)F)cc3)c-2c/c1=N\C(C)C` [TBI-164, 5-(4-Trifluoromethoxyphenyl)-3-(1-methylethyl)imino-2-(2-methoxy-3-pyridyl)amino-3,5-dihydrophenazine], the MIC came to 0.028 µg/mL (≈ 0.0539 µM).
Take `COc1ncccc1Nc1cc2nc3ccccc3n(-c3ccc(OC(F)(F)F)cc3)c-2c/c1=N\C1CCN(CC(C)C)CC1` [TBI-165, 5-(4-Trifluoromethoxyphenyl)-3-(N-isobutyl-4-piperidyl)imino-2-(2-methoxy-3-pyridyl)amino-3,5-dihydrophenazine]: the MIC was determined as 0.016 µg/mL (≈ 0.0259 µM).
As for `COc1ncccc1Nc1cc2nc3ccccc3n(-c3ccc(OC(F)(F)F)cc3)c-2c/c1=N\C1CCOCC1` [TBI-167, 5-(4-Trifluoromethoxyphenyl)-3-(4-tetrahydropyranyl)imino-2-(2-methoxy-3-pyridyl)amino-3,5-dihydrophenazine], the MIC was found to be 0.016 µg/mL (≈ 0.0285 µM).
In the case of `COc1ncccc1Nc1cc2nc3ccccc3n(-c3ccc(OC(F)(F)F)cc3)c-2c/c1=N\C1CCN(C)CC1` [TBI-168, 5-(4-Trifluoromethoxyphenyl)-3-(N-methyl-4-piperidyl)imino-2-(2-methoxy-3-pyridyl)amino-3,5-dihydrophenazine], the MIC is 0.109 µg/mL (≈ 0.19 µM).
Turning to `COc1ncccc1Nc1cc2nc3ccccc3n(-c3ccc(OC(F)(F)F)cc3)c-2c/c1=N\CCN1CCOCC1` [TBI-169, 5-(4-Trifluoromethoxyphenyl)-3-(2-morpholinoethyl)imino-2-(2-methoxy-3-pyridyl)amino-3,5-dihydrophenazine], the MIC was 0.06 µg/mL (≈ 0.102 µM).
With `Cc1ccc(-n2c3c/c(=N\C(C)C)c(Nc4cccnc4)cc-3nc3ccccc32)cc1` [TBI-300, 5-(4-Methylphenyl)-3-(1-methylethyl)imino-2-(3-pyridyl)amino-3,5-dihydrophenazine], the MIC was found to be 0.03 µg/mL (≈ 0.0715 µM).
Consider `COC1CCC(/N=c2\cc3n(-c4ccc(C)cc4)c4ccccc4nc-3cc2Nc2cccnc2)CC1` (stereo not drawn) [TBI-301, 5-(4-Methylphenyl)-3-(4-methoxycyclohexyl)imino-2-(3-pyridyl)amino-3,5-dihydrophenazine], for which the MIC came out at 0.06 µg/mL (≈ 0.123 µM).
Then `Cc1ccc(-n2c3c/c(=N\CCN4CCOCC4)c(Nc4cccnc4)cc-3nc3ccccc32)cc1` [TBI-302, 5-(4-Methylphenyl)-3-(2-morpholinoethyl)imino-2-(3-pyridyl)amino-3,5-dihydro-phenazine], with 0.125 µg/mL (≈ 0.255 µM).
`Cc1ccc(-n2c3c/c(=N\C4CCOCC4)c(Nc4cccnc4)cc-3nc3ccccc32)cc1` [TBI-303, 5-(4-Methylphenyl)-3-(4-tetrahydropyranyl)imino-2-(3-pyridinyl)amino-3,5-dihydrophenazine]: the MIC worked out at 0.03 µg/mL (≈ 0.065 µM).
As to `Cc1ccc(-n2c3c/c(=N\C4CCN(C)CC4)c(Nc4cccnc4)cc-3nc3ccccc32)cc1` [TBI-304, 5-(4-Methylphenyl)-3-(N-methyl-4-piperidyl)imino-2-(3-pyridinyl)amino-3,5-dihydro-phenazine], the MIC was 0.25 µg/mL (≈ 0.527 µM).
With `Cc1ccc(-n2c3c/c(=N\C4CCN(CC(C)C)CC4)c(Nc4cccnc4)cc-3nc3ccccc32)cc1` [TBI-305, 5-(4-Methylphenyl)-3-(N-isobutyl-4-piperidyl)imino-2-(3-pyridyl)amino-3,5-dihydrophenazine], the MIC was 0.125 µg/mL (≈ 0.242 µM).
